For one assay, the target named is T1, human renin (Homo sapiens, UniProt P00797).
T1 sequence (P00797 67-406): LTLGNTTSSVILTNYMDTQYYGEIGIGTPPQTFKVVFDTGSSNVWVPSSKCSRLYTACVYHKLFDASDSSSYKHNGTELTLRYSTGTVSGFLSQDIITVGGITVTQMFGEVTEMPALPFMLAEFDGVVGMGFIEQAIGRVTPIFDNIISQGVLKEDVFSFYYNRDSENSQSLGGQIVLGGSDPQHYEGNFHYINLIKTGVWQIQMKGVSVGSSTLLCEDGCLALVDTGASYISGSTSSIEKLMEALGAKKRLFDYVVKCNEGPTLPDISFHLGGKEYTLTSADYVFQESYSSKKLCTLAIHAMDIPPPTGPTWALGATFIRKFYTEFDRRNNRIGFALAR
Kind of assay: Human Renin Test (angiotensin I by radioimmunoassay). The format is biochemical. The protocol:
The enzyme preparation was the international reference standard for human renin while human blood plasma was the angiotensinogen substrate source. The enzyme inhibition assay involved a two-hour incurbation at 37° C. of the following final concentrations of reagents (total volume of 0.25 ml): 0.1 mG units/ml human renin, 0.05 ml human plasma, 6 mM Na2 EDTA, 2.4 mM PMSF, 1.5 mM 8-hydroxyquinoline, 0.4 mg/ml BSA, 0.024 mg/ml neomycin sulfate in a 100 mM Tris Acetate buffer, pH 7.5. The reaction was terminated by boiling for 10 min and the angiotensin I produced was determined by radioimmunoassay.
This assay is a modification of the one by Burton et al. (Biochemistry 14, 3892, 1975).

For the next assay, the target named is T2, monkey renin (Macaca mulatta, UniProt Q6DLW5).
T2 construct: from tissue; host or cells: plasma of furosemide-treated Rhesus monkeys
T2 sequence (Q6DLW5 67-406): T1 sequence (P00797 67-406) with T2A, I148L, S169A, Q204P, R340H
Kind of assay: Monkey Renin Test: plasma renin activity of Lasix treated Rhesus monkeys. Also noted: Plasma renin activity (PRA), Pre-Lasix -24 hr / Plasma renin activity (PRA), Post-Lasix 0 hr / Plasma renin activity (PRA), Post-Lasix 2 min / Plasma renin activity (PRA), Post-Lasix 5 min / Plasma renin activity (PRA), Post-Lasix 15 min: unit not given here. The format is in vivo. The conditions noted are these: for PRA after 15 min, in words / PRA at 2 min after treatment, in words: 10 mg/kg iv, lasix treated Rhesus monkeys; for Plasma renin activity (PRA), Post-Lasix 2 min: 2 min after 10 mg/kg iv; for Plasma renin activity (PRA), Post-Lasix 2 min / Plasma renin activity (PRA), Post-Lasix 5 min / Plasma renin activity (PRA), Post-Lasix 15 min / Plasma renin activity (PRA), Pre-Lasix -24 hr / Plasma renin activity (PRA), Post-Lasix 0 hr: mean ± S.E., n = 6; for Plasma renin activity (PRA), Post-Lasix 5 min: 5 min after 10 mg/kg iv; for Plasma renin activity (PRA), Post-Lasix 15 min: 15 min after 10 mg/kg iv; for Plasma renin activity (PRA), Pre-Lasix -24 hr: baseline before lasix and before drug, group later given 10 mg/kg iv; for Plasma renin activity (PRA), Post-Lasix 0 hr: immediately before drug treatment (10 mg/kg iv). The procedure:
Rhesus monkeys (6/group) weighing (6.3-9.9 kg) were treated with lasix (furosemide) at 2 mg/kg, both in the A.M. and P.M. on day 1. […] Plasma samples (K-EDTA) were taken before the initial lasix, immediately before the drug treatment and at 2, 5, 15 min after the treatment. Plasma renin activity (PRA) was determined by the method of Burton et al., Biochemistry 14, 3892, 1975.

A further assay concerns hog renin. The conditions noted are these: after the injection of hog renin into nephrectomized rats; cited from earlier work.

Positions count from the first letter of the chain named. Square brackets hold non-standard residues; d marks the D form. Peptide text beside a SMILES is read from it. * marks the point of attachment. Sta = CC(C)C[C@H](N)[C@@H](O)CC(=O)O; Isovaleryl = CC(C)CC(=O)*

On to `CC(C)C[C@H](NC(=O)[C@H](Cc1ccccc1)NC(=O)OC(C)(C)C)C(=O)N[C@@H](Cc1ccccc1)[C@@H](O)CO` [Compound 4, N-[(1,1-dimethylethoxy)carbonyl]-L-phenylalanyl-N-[2R, 3-dihydroxy-1S-(phenylmethyl)propyl]-L-leucinamide], for which the “Activity, effect on human renin activity” value on human renin (Dose 8.4 × 10^-6 (unit not given)) was “Active”. For the same compound, on monkey renin, the “PRA after 15 min, in words” value is listed as “still lowered”; the “PRA at 2 min after treatment, in words” value is on record as “returned to pre-lasix values”; the “Plasma renin activity (PRA), Post-Lasix 2 min” value amounted to 8.4 ± 2.6; the “Plasma renin activity (PRA), Post-Lasix 5 min” value is given as 15.1 ± 3.5. Moreover, at monkey renin, the “Plasma renin activity (PRA), Post-Lasix 15 min” value stood at 23.5 ± 4.6; the “Plasma renin activity (PRA), Pre-Lasix -24 hr” value was found to be 12.2 ± 2.9; the “Plasma renin activity (PRA), Post-Lasix 0 hr” value amounted to 47.2 ± 7.9.
On to `CC(C)(C)OC(=O)N[C@@H](Cc1ccccc1)C(=O)N[C@@H](Cc1c[nH]cn1)C(=O)N[C@@H](Cc1ccccc1)[C@@H](O)CO` [Compound 7, N-[(1,1-dimethylethoxy)carbonyl]-L-phenylalanyl-N-[2R,3-dihydroxy-1S-(phenylmethyl)propyl]-L-histidinamide], for which the “Activity, effect on human renin activity” value at human renin (Dose 2.6 × 10^-6 (unit not given)) is on record as “Active”.
Turning to `CC(C)C[C@H](NC(=O)[C@H](Cc1cccc2ccccc12)NC(=O)OC(C)(C)C)C(=O)N[C@@H](Cc1ccccc1)[C@@H](O)CO` [Compound 8, N-[(1,1-dimethylethoxy)carbonyl]-3-(1-naphthalenyl)-L-alanyl-N-[2R,3-dihydroxy-1S-(phenylmethyl)propyl]-L-leucinamide], at human renin (Dose 1.5 × 10^-5 (unit not given)), the “Activity, effect on human renin activity” value is given as “Active”.
For `CC(C)C[C@H](NC(=O)[C@H](Cc1ccccc1)NC(=O)CC(C)(C)C)C(=O)N[C@@H](Cc1ccccc1)[C@@H](O)CO` [Compound 11, N-(3,3-dimethyl-1-oxobutyl)-L-phenylalanyl-N-[2R,3-dihydroxy-1S-(phenylmethyl)propyl]-L-leucinamide], on human renin (Dose 4 × 10^-6 (unit not given)), the “Activity, effect on human renin activity” value is “Active”.
Take `CC(C)CC(=O)N[C@H](C(=O)N[C@H](C(=O)N[C@@H](CC(C)C)[C@@H](O)CC(=O)N[C@@H](C)C(=O)N[C@@H](CC(C)C)[C@@H](O)CC(=O)O)C(C)C)C(C)C` [Pepstatin, pepstatin, reference compound] (Isovaleryl-VV[Sta]A[Sta]-OH): the “Blood pressure in vivo” value in the assay with hog renin is “reduce blood pressure”. Besides, on monkey renin, the “PRA after 15 min, in words” value is “returned to post-lasix levels”; the “PRA at 2 min after treatment, in words” value is on record as “returned to pre-lasix values”; the “Plasma renin activity (PRA), Post-Lasix 2 min” value came to 13.0 ± 0.2; the “Plasma renin activity (PRA), Post-Lasix 5 min” value is on record as 22.7 ± 9.2. Also, at monkey renin, the “Plasma renin activity (PRA), Post-Lasix 15 min” value came out at 44.7 ± 5.4; the “Plasma renin activity (PRA), Pre-Lasix -24 hr” value stood at 13.9 ± 2.5; the “Plasma renin activity (PRA), Post-Lasix 0 hr” value is listed as 53.1 ± 6.1.

These data come from US4657931A, “N-(acyldipeptidyl)-aminoglycols” (G. D. Searle & Co., priority 1985, dated 1987).
